Assay results as given in article PMC5824344 (ACS Chemical Biology, 2017).

How the values were obtained:
[1] = tested on: GluI and GluII in primary human monocyte-derived macrophages (MDMΦ); test: Free oligosaccharide (FOS) assay in primary monocyte-derived macrophages; assay type: cell-based; conditions: naive MDMΦ
Procedure: (§1) 5 Cell and Virus Culture and Assays
(§2) 5.1 Culture of Cell Lines
The human hepatoma cell line Huh7.5 (Apath, LLC) was cultured in Dulbecco’s modiﬁed Eagle medium (DMEM) with Glutamax (Gibco) supplemented with 100 µg mL−1 strepto-mycin (Sigma), 100 U mL−1 penicillin (Sigma), 100 µm MEM non-essential amino acids (Gibco) and 10% (volume/volume, v/v) heat-inactivated (56 ◦C, 30 min) fetal calf serum (FCS, Seralab). The human monocytic cell line HL60 (ATCC), human T lymphocyte cell line Jurkat (ATCC), and human B lymphocyte cell line Raji (ATCC) were each maintained in RPMI 1640 media with Glutamax (Gibco) supplemented with 100 µg mL−1 streptomycin, 100 U mL−1 penicillin and 10% (v/v) FCS. […]
(§3) Cell viability was measured using the CellTiter 96 R© AQueous One Solution Cell Prolifera-tion MTA (3-(4,5-dimethylthiazol-2-yl)-5-(3-carboxymethoxyphenyl)-2-(4-sulfophenyl)-2H - […]
(§4) After a further one to two hour incubation, the absorbance at 490 nm was measured on a Molecular Devices SpectraMax M5 microplate reader. […]
(§5) Absorbances were averaged across replicates, and corrected for background by subtracting the value for media-only wells. Each drug treatment was then evaluated as a percentage of untreated cells. […]
FOS analysis was carried out as described previously. […] Before purifying the FOS, each sample was analyzed for protein content using the modiﬁed Bradford assay. […]

[2] = tested on: GluI and GluII in HL60 (promyelocytic) cells; test: Free oligosaccharide (FOS) assay in HL60 cells; assay type: cell-based, human; conditions: 48 h
Procedure: as §1, §2
The human hepatoma cell line Huh7.5 (Apath, LLC) was cultured in Dulbecco’s modiﬁed Eagle medium (DMEM) with Glutamax (Gibco) supplemented with 100 µg mL−1 strepto-mycin (Sigma), 100 U mL−1 penicillin (Sigma), 100 µm MEM non-essential amino acids (Gibco) and 10% (volume/volume, v/v) heat-inactivated (56 ◦C, 30 min) fetal calf serum (FCS, Seralab). The human monocytic cell line HL60 (ATCC), human T lymphocyte cell line Jurkat (ATCC), and human B lymphocyte cell line Raji (ATCC) were each maintained in RPMI 1640 media with Glutamax (Gibco) supplemented with 100 µg mL−1 streptomycin, 100 U mL−1 penicillin and 10% (v/v) FCS. The monkey kidney cell line LLC-MK2 (a gift from Armed Forces Research Institute of Medical Sciences, Thailand) was cultured in M199 media (Gibco) supplemented with 2 mm l-glutamine, 100 µg mL−1 streptomycin, 100 U mL−1 penicillin and 20% (v/v) FCS. Subsequently, these are referred to as growth media for each cell line. Unless otherwise indicated, all cell incubations were carried out at 37 ◦C and 5% CO2. All cells were maintained as mycoplasma free, with regular veriﬁcations by polymerase chain reaction (PCR).
5.2 Isolation and Culture of Primary Human MDMΦ
Primary human MDMΦ were generated from human monocytes isolated from buﬀy coats (NHS Blood and Transplant, surplus to clinical requirements) as described previously 5 and cultured in X-VIVO10 medium (Lonza) supplemented with 1% (v/v) heat-inactivated (56◦C, 30 min) autologous plasma. The use of human blood was approved by the NHS National Research Ethics Service (09/H0606/3).
as §3
tetrazolium, inner salt) Assay (Promega) according to the manufacturer’s instruction. Brieﬂy, cells were treated in triplicate either for 4 d (Huh7.5) or 2 d (all other cell types). […]
as §4, §5
FOS analysis was carried out as described previously. […] Before purifying the FOS, each sample was analyzed for protein content using the modiﬁed Bradford assay. […] The labelled glycans were then analyzed by normal phase high performance liquid chromatography. Retention times and peak area were used to identify and quantify glycans, respectively, by comparison to standards of known identity and molar quantity. FOS quantities were normalized to protein levels.

[3] = target: T1, Rat liver ER α-glucosidase II (Rattus norvegicus, UniProt A0A8I6GFL3); test: Inhibition of isolated rat liver ER α-glucosidase II (α-p-nitrophenylglucoside substrate); assay type: biochemical; conditions: isolated enzyme in vitro; read-out: IC50 with regard to GluII
T1 construct: Rat liver ER, II; from tissue; host or cells: liver of male Wistar rats
Procedure: 4 Enzyme Inhibition Assays
All rat enzymes were isolated from 18-week-old, male Wistar rats, while human lysosomal α-glucosidase was obtained in commercially available form from Sanoﬁ Genzyme. Inhibition of isolated glucosidases was evaluated as described previously. 3 Brieﬂy, maltase, isomaltase, sucrase, and cellobiase were used as partially puriﬁed tissue extracts. Inhibition assays for each enzyme were performed with the respective natural substrate, and release of d-glucose measured by Glucose B-test (Wako Diagnostics). Assays of rat ER α-glucosidase II and human lysosomal α-glucosidase inhibition were conducted with α-p-nitrophenylglucoside as substrate; 400 mm Na2CO3 was added to quench these reactions, and the extent of hydrolysis was evaluated as absorbance at 400 nm by spectrophotometer.
ER α-glucosidase I inhibition assays were performed using anthranilic acid-labelled Glc3Man7GlcNAc2 as substrate. After terminating the reaction with acetonitrile, protein was removed by cen-trifugation through a 10 kDa molecular weight cut oﬀ ﬁlter. The amount of hydrolysis was then quantiﬁed by normal phase high performance liquid chromatography analysis of unreacted substrate and product (Glc2Man7GlcNAc2).4
ER α-glucosidase II inhibition assays using native-like substrates were performed using an-thranilic acid-labelled Glc2Man7GlcNAc2 as substrate. After terminating the reaction with acetonitrile, protein was removed by centrifugation through a 10 kDa molecular weight cut oﬀ ﬁlter. The amount of hydrolysis was then quantiﬁed by normal phase high performance liq-uid chromatography analysis of unreacted substrate and both products (Glc1Man7GlcNAc2

T1 sequence (A0A8I6GFL3 33-944): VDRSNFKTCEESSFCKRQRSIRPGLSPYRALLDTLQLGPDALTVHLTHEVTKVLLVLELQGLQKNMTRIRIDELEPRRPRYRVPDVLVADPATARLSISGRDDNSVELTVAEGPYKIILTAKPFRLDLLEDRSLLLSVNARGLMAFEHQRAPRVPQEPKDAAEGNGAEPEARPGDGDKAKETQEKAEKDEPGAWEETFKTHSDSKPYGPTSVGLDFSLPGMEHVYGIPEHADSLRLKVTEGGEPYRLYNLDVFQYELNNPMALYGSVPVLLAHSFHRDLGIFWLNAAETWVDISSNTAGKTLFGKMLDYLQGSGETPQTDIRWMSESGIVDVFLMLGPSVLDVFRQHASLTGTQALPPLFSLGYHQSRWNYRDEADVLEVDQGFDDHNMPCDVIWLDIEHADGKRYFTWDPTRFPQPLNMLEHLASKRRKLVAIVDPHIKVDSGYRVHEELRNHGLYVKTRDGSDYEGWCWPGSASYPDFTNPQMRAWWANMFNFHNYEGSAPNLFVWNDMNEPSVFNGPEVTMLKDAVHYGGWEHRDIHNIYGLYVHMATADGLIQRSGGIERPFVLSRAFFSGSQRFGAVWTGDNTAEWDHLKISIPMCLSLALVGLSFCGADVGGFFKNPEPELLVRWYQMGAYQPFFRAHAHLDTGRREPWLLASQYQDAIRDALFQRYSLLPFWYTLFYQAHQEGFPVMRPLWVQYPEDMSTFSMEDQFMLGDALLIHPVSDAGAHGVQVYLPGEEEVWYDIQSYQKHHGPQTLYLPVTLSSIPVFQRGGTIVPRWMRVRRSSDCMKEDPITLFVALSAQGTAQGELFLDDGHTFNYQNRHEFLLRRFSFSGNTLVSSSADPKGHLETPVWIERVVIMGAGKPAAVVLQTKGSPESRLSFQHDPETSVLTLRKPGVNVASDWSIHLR
T1 sequence (A0A8I6ADW9 1-525 partner): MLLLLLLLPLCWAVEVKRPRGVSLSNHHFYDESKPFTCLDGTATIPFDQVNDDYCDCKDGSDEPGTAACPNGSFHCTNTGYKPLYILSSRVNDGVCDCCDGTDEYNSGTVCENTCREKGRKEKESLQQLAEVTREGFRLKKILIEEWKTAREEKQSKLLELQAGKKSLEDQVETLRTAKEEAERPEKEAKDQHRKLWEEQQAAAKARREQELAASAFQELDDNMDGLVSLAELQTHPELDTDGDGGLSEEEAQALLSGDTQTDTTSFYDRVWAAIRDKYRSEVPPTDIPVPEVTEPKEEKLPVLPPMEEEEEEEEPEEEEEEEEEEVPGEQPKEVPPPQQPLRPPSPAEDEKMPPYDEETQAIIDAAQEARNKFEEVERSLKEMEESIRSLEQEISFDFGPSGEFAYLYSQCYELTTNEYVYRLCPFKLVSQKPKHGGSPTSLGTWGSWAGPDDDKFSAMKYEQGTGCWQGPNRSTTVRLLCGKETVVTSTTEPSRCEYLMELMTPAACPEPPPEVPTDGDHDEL

SMILES	glucosylated free oligosaccharides (FOS) observed after treatment [1]	glucosylated free oligosaccharides (FOS) observed after treatment ([2]; 10 µm)	IC50 [3]	glucosylated free oligosaccharides (FOS) observed after treatment ([2]; 50 µm)	glucosylated free oligosaccharides (FOS) observed after treatment ([2]; 50 µm, listed as ToP-DNJ 4)
CCCCN1CC(O)C(O)C(O)C1CO [Compound 2, N-butyl-D-1-deoxynojirimycin, reference compound]	mono- and triglucosylated FOS were observed	produced glucosylated FOS	13 µM		
Cc1c(C)c2c(c(C)c1OCCCCCN1CC(O)C(O)C(O)C1CO)CCC(C)(CCCC(C)CCCC(C)CCCC(C)C)O2 (centres unmarked) [Compound 4, 5′-tocopheroxypentyl-DNJ]	Only monoglucosylated FOS accumulated	did not	9 µM	detected	production of monoglucosylated FOS
